Data reported in publication PMC5863483, “Low HLA binding of diabetes-associated CD8+ T-cell epitopes is increased by post translational modifications” (BMC Immunology, 2018).
Where two headings read alike, the source gives them in different places. Blank lines part the entries; values can stand above or below the compound they belong to. *1 amine or outer side, *2 acyl side, *3 side chain or, on linkers, in order; H or OH if unused. Where a SMILES comes first, the peptide text is derived from it. Where no end group is shown, it is not given here. [ ]: non-standard residue; d: D form. γGlu = O=C(O)[C@H](CCC(=O)[*:2])N[*:1]; βAsp = O=C(O)[C@H](CC(=O)[*:2])N[*:1]; Cya = N[C@@H](CS(=O)(=O)O)C(=O)O; Cit = NC(=O)NCCC[C@H](N)C(=O)O

Target: HLA-A*02:01 (Homo sapiens, UniProt P04439, D140Y/D185E/D98H/E176V/E277Q/G131W/G231S/I119V/I121R/I166T/I218V/L300P/L318F/N151K/N90K/P208A/P217A/Q86G/Q94H/R138H/R169H/T345S)
Assay: HLA-peptide competition binding assay, A*02:01
[1] = unmodified (WT) insulin peptide, competition binding assay, a dash indicates IC50 >40,000 nM, read-out: A*02:01 binding (IC50 nM) WT
[2] = read-out: IC50 nM, target assay A*02:01
[3] = post-translationally modified insulin peptide, competition binding assay, a dash indicates IC50 >40,000 nM, read-out: A*02:01 binding (IC50 nM) Modified
[4] = read-out: A*02:01 binding (IC50 nM) Modified
[5] = read-out: A*02:01 binding (IC50 nM) WT

Compound: C[C@@H](O)[C@H](NC(=O)[C@H](CCCCN)NC(=O)[C@@H]1CCCN1C(=O)[C@@H](NC(=O)[C@H](Cc1ccc(O)cc1)NC(=O)[C@H](Cc1ccccc1)NC(=O)[C@H](Cc1ccccc1)NC(=O)CN)[C@@H](C)O)C(=O)N[C@@H](CCCNC(=N)N)C(=O)N[C@@H](CCCNC(=N)N)C(=O)O
IC50 [1]: > 40000 nM

Compound: LYLVCGERG
IC50 (unmodified (wild type) insulin-derived peptide, radiolabeled ligand competition, purified MHC, two-day incubation, three or more independent experiments, read-out: A*02:01 binding, WT): 28000 nM

Compound: FFYTPKTRR
IC50 [1]: > 40000 nM

Compound: CC(C)C[C@H](NC(=O)[C@H](Cc1c[nH]cn1)NC(=O)[C@H](CO)NC(=O)CNC(=O)[C@H](CS(=O)(=O)O)NC(=O)[C@H](CC(C)C)NC(=O)[C@@H](N)Cc1c[nH]cn1)C(=O)N[C@H](C(=O)N[C@@H](CCC(=O)O)C(=O)O)C(C)C [HLBGSHLVE] (H-HL[Cya]GSHLVE-OH; N-terminus and C-terminus assumed)
IC50 [3]: > 40000 nM

Compound: CC(C)C[C@H](NC(=O)[C@@H](N)Cc1ccc(O)cc1)C(=O)N[C@H](C(=O)N[C@@H](CS)C(=O)NCC(=O)N[C@@H](CCC(=O)O)C(=O)N[C@@H](CCCNC(N)=O)C(=O)NCC(=O)N[C@@H](Cc1ccccc1)C(=O)N[C@@H](Cc1ccccc1)C(=O)O)C(C)C (H-YLVCGE[Cit]GFF-OH)
IC50 [4]: 2620 nM

Compound: CC(C)C[C@H](NC(=O)[C@H](C)N)C(=O)N[C@@H](Cc1ccc(O)c(Cl)c1)C(=O)N[C@@H](CC(C)C)C(=O)N[C@H](C(=O)N[C@@H](CS)C(=O)NCC(=O)N[C@@H](CCC(=O)O)C(=O)N[C@@H](CCCNC(=N)N)C(=O)NCC(=O)O)C(C)C [ALJLVCGERG]
Fold increase (increase of A*02:01 binding of the modified peptide compared to the WT peptide): 3.21 fold

Compound: C[C@H](NC(=O)[C@H](CCC(=O)O)NC(=O)[C@H](CCCNC(N)=O)NC(=O)[C@H](CCCNC(N)=O)NC(=O)[C@@H](NC(=O)[C@H](CCCCN)NC(=O)[C@@H]1CCCN1C(=O)[C@@H](NC(=O)[C@@H](N)Cc1ccc(O)cc1)[C@@H](C)O)[C@@H](C)O)C(=O)O (H-YTPKT[Cit][Cit]EA-OH)
IC50 [4]: 34700 nM

Compound: MRLLPLLAL [MRLLPLLAL]
IC50 [5]: 228 nM

Compound: CC[C@H](C)[C@H](NC(=O)CNC(=O)[C@H](CCCNC(N)=O)NC(=O)[C@H](CCCCN)NC(=O)[C@H](CCC(N)=O)NC(=O)[C@H](CC(C)C)NC(=O)[C@H](CO)NC(=O)CNC(=O)[C@@H](N)CCC(=O)O)C(=O)N[C@H](C(=O)O)C(C)C (H-EGSLQK[Cit]GIV-OH; N-terminus and C-terminus assumed)
IC50 [3]: > 40000 nM

Compound: MRLLPLLALL
IC50 [5]: 10 nM

Compound: CGERGFFYTP
IC50 [1]: > 40000 nM

Compound: CC(C)C[C@H](NC(=O)[C@H](CO)NC(=O)CNC(=O)[C@H](CCC(=O)O)NC(=O)[C@@H](N)CC(C)C)C(=O)N[C@@H](CCC(N)=O)C(=O)N[C@@H](CCCCN)C(=O)N[C@@H](CCCNC(N)=O)C(=O)NCC(=O)O (H-LEGSLQK[Cit]G-OH; N-terminus and C-terminus assumed)
IC50 [3]: > 40000 nM

Compound: GSLQKRGIVE [GSLQKRGIVE]
IC50 [1]: > 40000 nM

Compound: CGSHLVEAL [CGSHLVEAL]
IC50 [1]: > 40000 nM

Compound: CC(C)C[C@H](NC(=O)[C@H](CC(=O)O)NC(=O)[C@H](CCC(=O)O)NC(=O)[C@H](C)NC(=O)[C@H](CCC(=O)O)NC(=O)[C@H](CCCNC(N)=O)NC(=O)[C@H](CCCNC(N)=O)NC(=O)[C@@H](NC(=O)[C@@H](N)CCCCN)[C@@H](C)O)C(=O)O (H-KT[Cit][Cit]EAEDL-OH; N-terminus and C-terminus assumed)
IC50 [3]: > 40000 nM

Compound: GERGYYYTP
IC50 (read-out: A*02:01 binding (IC50 nM) Modified, post-translationally modified insulin peptide, competition binding assay, a dash indicates IC50 >40,000 nM): > 40000 nM

Compound: C[C@@H](O)[C@H](NC(=O)[C@H](Cc1ccc(O)cc1)NC(=O)[C@H](Cc1ccccc1)NC(=O)[C@H](Cc1ccccc1)NC(=O)CNC(=O)[C@H](CCCNC(N)=O)NC(=O)[C@@H](N)CCC(=O)O)C(=O)N1CCC[C@H]1C(=O)N[C@@H](CCCCN)C(=O)O (H-E[Cit]GFFYTPK-OH)
IC50 [4]: 38100 nM

Compound: RREAEDLQV
IC50 [1]: > 40000 nM

Compound: CC(C)C[C@H](N)C(=O)N[C@H](C(=O)N[C@@H](CS(=O)(=O)O)C(=O)NCC(=O)N[C@@H](CCC(=O)O)C(=O)N[C@@H](CCCNC(=N)N)C(=O)NCC(=O)N[C@@H](Cc1ccc(O)cc1)C(=O)N[C@@H](Cc1ccc(O)cc1)C(=O)N[C@@H](Cc1ccc(O)cc1)C(=O)O)C(C)C [LVBGERGYYY] (H-LV[Cya]GERGYYY-OH; N-terminus and C-terminus assumed)
IC50 [3]: > 40000 nM

Compound: LQKRGIVEQC
IC50 [1]: > 40000 nM

Compound: QKRGIVEQC
IC50 [1]: > 40000 nM

Compound: CC(C)C[C@H](NC(=O)[C@H](C)NC(=O)[C@H](CCC(=O)O)NC(=O)[C@@H](NC(=O)[C@H](CC(C)C)NC(=O)[C@H](Cc1c[nH]cn1)NC(=O)[C@H](CO)NC(=O)CNC(=O)[C@@H](N)CS(=O)(=O)O)C(C)C)C(=O)N[C@@H](Cc1ccc(O)cc1)C(=O)O [BGSHLVEALY] (H-[Cya]GSHLVEALY-OH)
IC50 (post-translationally modified insulin-derived peptide, radiolabeled ligand competition, purified MHC, two-day incubation, three or more independent experiments, read-out: A*02:01 binding, Modified): 8040 nM

Compound: LVCGERGYFY
IC50 [3]: > 40000 nM

Compound: SISVLISAL [SISVLISAL, reference compound]
IC50 [2]: 1550 nM

Compound: CC(C)C[C@H](NC(=O)[C@H](Cc1c[nH]cn1)NC(=O)[C@H](CO)NC(=O)CNC(=O)[C@H](CS)NC(=O)[C@H](CC(C)C)NC(=O)[C@H](Cc1c[nH]cn1)NC(=O)CC[C@H](NC(=O)C[C@H](N)C(=O)O)C(=O)O)C(=O)O [OZHLCGSHL] ({βAsp-γGlu}-HLCGSHL-OH; N-terminus and C-terminus assumed)
IC50 [3]: > 40000 nM

Compound: CC(C)C[C@H](NC(=O)[C@H](Cc1c[nH]cn1)NC(=O)CC[C@H](NC(=O)C[C@H](N)C(=O)O)C(=O)O)C(=O)N[C@@H](CS)C(=O)NCC(=O)N[C@@H](CO)C(=O)N[C@@H](Cc1c[nH]cn1)C(=O)N[C@@H](CC(C)C)C(=O)N[C@H](C(=O)O)C(C)C [OZHLCGSHLV] ({βAsp-γGlu}-HLCGSHLV-OH; N-terminus and C-terminus assumed)
IC50 [3]: > 40000 nM

Compound: CC(C)[C@H](N)C(=O)N[C@@H](CS(=O)(=O)O)C(=O)NCC(=O)N[C@@H](CCC(=O)O)C(=O)N[C@@H](CCCNC(=N)N)C(=O)NCC(=O)N[C@@H](Cc1ccc(O)cc1)C(=O)N[C@@H](Cc1ccc(O)cc1)C(=O)N[C@@H](Cc1ccc(O)cc1)C(=O)O [VBGERGYYY] (H-V[Cya]GERGYYY-OH; N-terminus and C-terminus assumed)
IC50 [3]: > 40000 nM

Compound: HLCGSHLVEA [reference compound]
IC50: 7540 nM

Compound: C[C@H](NC(=O)[C@H](CCC(=O)O)NC(=O)[C@H](CCCNC(N)=O)NC(=O)[C@H](CCCNC(N)=O)NC(=O)[C@@H](NC(=O)[C@H](CCCCN)NC(=O)[C@@H]1CCCN1C(=O)[C@@H](N)[C@@H](C)O)[C@@H](C)O)C(=O)N[C@@H](CCC(=O)O)C(=O)O (H-TPKT[Cit][Cit]EAE-OH; N-terminus and C-terminus assumed)
IC50 [3]: > 40000 nM

Compound: CC[C@H](C)[C@H](NC(=O)CNC(=O)[C@H](CCCNC(N)=O)NC(=O)[C@H](CCCCN)NC(=O)[C@H](CCC(N)=O)NC(=O)[C@H](CC(C)C)NC(=O)[C@H](CO)NC(=O)CNC(=O)[C@@H](N)CCC(=O)O)C(=O)O (H-EGSLQK[Cit]GI-OH; N-terminus and C-terminus assumed)
IC50 [3]: > 40000 nM

Compound: CC[C@H](C)[C@H](NC(=O)CNC(=O)[C@H](CCCNC(N)=O)NC(=O)[C@H](CCCCN)NC(=O)[C@H](CCC(N)=O)NC(=O)[C@H](CC(C)C)NC(=O)[C@H](CO)NC(=O)CN)C(=O)N[C@H](C(=O)N[C@@H](CCC(=O)O)C(=O)O)C(C)C [GSLQKUGIVE] (H-GSLQK[Cit]GIVE-OH)
IC50 [4]: 34500 nM

Compound: CC(C)C[C@H](NC(=O)[C@H](C)N)C(=O)N[C@@H](CCC(=O)O)C(=O)NCC(=O)N[C@@H](CO)C(=O)N[C@@H](CC(C)C)C(=O)N[C@@H](CCC(N)=O)C(=O)N[C@@H](CCCCN)C(=O)N[C@@H](CCCNC(N)=O)C(=O)O (H-ALEGSLQK[Cit]-OH; N-terminus and C-terminus assumed)
IC50 [3]: > 40000 nM

Compound: RGYYYTPKT
IC50: 8810 nM

Compound: RLLPLLALLA
IC50 [5]: 11 nM

Continued, values first:

IC50 [2]: 233 nM
Compound: LLGRFELIGI [reference compound]

IC50 [2]: > 40000 nM
Compound: QLARQQVHV [reference compound]

IC50 [2]: 4690 nM
Compound: TIADFWQMV [reference compound]

IC50 [2]: 25100 nM
Compound: STVASRLGPV [reference compound]

IC50 [2]: 684 nM
Compound: LNIDLLWSV [reference compound]

IC50 [2]: 581 nM
Compound: RLGPVARTRV [reference compound]

IC50 [2]: 51 nM
Compound: SLFEGVDFYT [reference compound]

IC50 [3]: > 40000 nM
Compound: VCGERGYFY

IC50 [2]: 2.2 nM
Compound: ILAVDGVLSV [reference compound]

IC50 [2]: 57 nM
Compound: YLLLRVLNI [reference compound]

IC50 [4]: 2420 nM
Compound: CC(C)C[C@H](NC(=O)[C@@H](N)Cc1ccc(O)cc1)C(=O)N[C@H](C(=O)N[C@@H](CS(=O)(=O)O)C(=O)NCC(=O)N[C@@H](CCC(=O)O)C(=O)N[C@@H](CCCNC(=N)N)C(=O)NCC(=O)N[C@@H](Cc1ccc(O)cc1)C(=O)N[C@@H](Cc1ccc(O)cc1)C(=O)O)C(C)C [YLVBGERGYY] (H-YLV[Cya]GERGYY-OH)

IC50 [2]: 11 nM
Compound: KVLHELFGMDI [reference compound]

IC50 [2]: 675 nM
Compound: ILVLASTITI [reference compound]

IC50 [2]: 124 nM
Compound: RLLYPDYQI [reference compound]

IC50 [2]: 55 nM
Compound: FLWSVFWLI [reference compound]

IC50 [5]: 6640 nM
Compound: VNQHLCGSHL

IC50 [2]: 2020 nM
Compound: VMNILLQYV [reference compound]

IC50 [2]: 5.4 nM
Compound: RLLPLWAALPL [reference compound]

IC50 [2]: 121 nM
Compound: CC[C@H](C)[C@H](NC(=O)[C@H](CC(N)=O)NC(=O)[C@H](C)NC(=O)[C@H](CC(C)C)NC(=O)[C@@H](N)CCCCN)C(=O)N[C@@H](CCC(N)=O)C(=O)N[C@@H](CS)C(=O)N1CCC[C@H]1C(=O)N[C@@H](CS)C(=O)N[C@@H](CC(C)C)C(=O)O [reference compound] (H-KLANIQCPCL-OH)

IC50 [2]: > 40000 nM
Compound: SLQKRGIVEQ [reference compound]

IC50 [2]: 4060 nM
Compound: HLASEKVYAI [reference compound]
